Test system: T. brucei brucei BSF
Assay: T. brucei BSF viability, resazurin reduction
Type: cell-based, Trypanosoma brucei brucei
Settings: Trypanosoma brucei, 2.5 µM; read-out: viability, T.brucei (2.5 µM)

Compound	viability at 2.5 µM [%]
CC(C)(C)c1ccc(NC[C@H](O)[C@@H](N)Cc2ccccc2)cc1 [LTC-1034, (2S,3S)-3-Amino-1-((4-(tert-butyl)phenyl)amino)-4-phenylbutan-2-ol]	72.8 ± 4.34
Cc1cccc(C)c1NC[C@H](O)[C@@H](N)Cc1ccccc1 [LTC-1041, (2S,3S)-3-Amino-1-((2,6-dimethylphenyl)amino)-4-phenylbutan-2-ol]	70.5 ± 3.15

Same assay, conditions: Trypanosoma brucei, 25 µM; read-out: viability, T.brucei (25 µM)

Compound	viability at 25 µM [%]
CC(C)(C)c1ccc(NC[C@H](O)[C@@H](N)Cc2ccccc2)cc1 [LTC-1034, (2S,3S)-3-Amino-1-((4-(tert-butyl)phenyl)amino)-4-phenylbutan-2-ol]	2.34 ± 1.3
Cc1cccc(C)c1NC[C@H](O)[C@@H](N)Cc1ccccc1 [LTC-1041, (2S,3S)-3-Amino-1-((2,6-dimethylphenyl)amino)-4-phenylbutan-2-ol]	2.06 ± 1.4

Test system: not given
Assay: not given
Settings: not given

Compound	melting point [°C]
CC(C)(C)c1ccc(NC[C@H](O)[C@@H](N)Cc2ccccc2)cc1 [LTC-1034, (2S,3S)-3-Amino-1-((4-(tert-butyl)phenyl)amino)-4-phenylbutan-2-ol]	74 to 76
Cc1cccc(C)c1NC[C@H](O)[C@@H](N)Cc1ccccc1 [LTC-1041, (2S,3S)-3-Amino-1-((2,6-dimethylphenyl)amino)-4-phenylbutan-2-ol]	63 to 65

Test system: L. major promastigotes
Assay: L. major promastigote viability, resazurin reduction
Type: cell-based, Leishmania major
Settings: Leishmania major, 72 h, read-out: viability, L.major promastigote (25 µM)
Text: (§1) The infectivity of the parasites was boosted by passaging in Balb/c mice and culturing the infected lymph nodes after six weeks. L. infantum (MHOM / BR / 76 / M4192) parasite was passaged in the same media formulation with 0.5% urine.

Compound	viability at 25 µM [%]
CC(C)(C)c1ccc(NC[C@H](O)[C@@H](N)Cc2ccccc2)cc1 [LTC-1034, (2S,3S)-3-Amino-1-((4-(tert-butyl)phenyl)amino)-4-phenylbutan-2-ol]	79.3 ± 17.2
Cc1cccc(C)c1NC[C@H](O)[C@@H](N)Cc1ccccc1 [LTC-1041, (2S,3S)-3-Amino-1-((2,6-dimethylphenyl)amino)-4-phenylbutan-2-ol]	88 ± 2.36

Same assay, conditions: Leishmania major; 25 µM; read-out: viability, L.major promastigote (25 µM)

Compound	viability at 25 µM [%]
CC(C)(C)c1ccc(NC[C@H](O)[C@@H](N)Cc2ccccc2)cc1 [LTC-1034, (2S,3S)-3-Amino-1-((4-(tert-butyl)phenyl)amino)-4-phenylbutan-2-ol]	6.26 ± 1.21
Cc1cccc(C)c1NC[C@H](O)[C@@H](N)Cc1ccccc1 [LTC-1041, (2S,3S)-3-Amino-1-((2,6-dimethylphenyl)amino)-4-phenylbutan-2-ol]	15.5 ± 3.29

Test system: intracellular L. infantum amastigotes
Assay: Parasite rescue assay (intramacrophage, J774 infected with L. infantum)
Type: cell-based, Leishmania infantum
Settings: J774, 25 µM; intracellular amastigote; read-out: viability, intracellular L. major amastigote (25 µM)

Compound	viability at 25 µM [%]
CC(C)(C)c1ccc(NC[C@H](O)[C@@H](N)Cc2ccccc2)cc1 [LTC-1034, (2S,3S)-3-Amino-1-((4-(tert-butyl)phenyl)amino)-4-phenylbutan-2-ol]	105 ± 5.69
Cc1cccc(C)c1NC[C@H](O)[C@@H](N)Cc1ccccc1 [LTC-1041, (2S,3S)-3-Amino-1-((2,6-dimethylphenyl)amino)-4-phenylbutan-2-ol]	71.6 ± 22.8

Test system: E. histolytica
Assay: E. histolytica viability, ATP luminescence (Cell titer glo)
Type: cell-based, Entamoeba histolytica
Settings: Entamoeba histolytica; read-out: viability, E.histolytica (2.5 µM)
Summary of the method: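 E. histolytica strain B2-5 at 2.5x10^4 cells/ml was exposed to compound for 48 h at 37 °C under anaerobic conditions, with viability read as ATP luminescence (CellTiter-Glo). The primary screen used 25 μM in triplicate, and follow-up potency runs used 9–16-point ranges spanning 0.01–100 μM.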

Compound	viability at 2.5 µM [%]
CC(C)(C)c1ccc(NC[C@H](O)[C@@H](N)Cc2ccccc2)cc1 [LTC-1034, (2S,3S)-3-Amino-1-((4-(tert-butyl)phenyl)amino)-4-phenylbutan-2-ol]	52 ± 6.13
Cc1cccc(C)c1NC[C@H](O)[C@@H](N)Cc1ccccc1 [LTC-1041, (2S,3S)-3-Amino-1-((2,6-dimethylphenyl)amino)-4-phenylbutan-2-ol]	85.2 ± 16.3

Same assay, conditions: Entamoeba histolytica; read-out: viability, E.histolytica (25 µM)

Compound	viability at 25 µM [%]
CC(C)(C)c1ccc(NC[C@H](O)[C@@H](N)Cc2ccccc2)cc1 [LTC-1034, (2S,3S)-3-Amino-1-((4-(tert-butyl)phenyl)amino)-4-phenylbutan-2-ol]	123 ± 5.09
Cc1cccc(C)c1NC[C@H](O)[C@@H](N)Cc1ccccc1 [LTC-1041, (2S,3S)-3-Amino-1-((2,6-dimethylphenyl)amino)-4-phenylbutan-2-ol]	128 ± 30.1

Test system: L. infantum promastigotes
Assay: L. infantum promastigote viability, resazurin reduction
Type: cell-based, Leishmania infantum
Settings: Leishmania infantum; 2.5 µM; sheet LTC_compound_viability; value ± spread; read-out: viability, L. infantum promastigote (2.5 µM)
Text: as §1

Compound	viability at 2.5 µM [%]
CC(C)(C)c1ccc(NC[C@H](O)[C@@H](N)Cc2ccccc2)cc1 [LTC-1034, (2S,3S)-3-Amino-1-((4-(tert-butyl)phenyl)amino)-4-phenylbutan-2-ol]	68 ± 22.2
Cc1cccc(C)c1NC[C@H](O)[C@@H](N)Cc1ccccc1 [LTC-1041, (2S,3S)-3-Amino-1-((2,6-dimethylphenyl)amino)-4-phenylbutan-2-ol]	47.1 ± 4.67

Same assay, conditions: Leishmania infantum; 25 µM; sheet LTC_compound_viability; value ± spread; read-out: viability, L. infantum promastigote (25 µM)

Compound	viability at 25 µM [%]
CC(C)(C)c1ccc(NC[C@H](O)[C@@H](N)Cc2ccccc2)cc1 [LTC-1034, (2S,3S)-3-Amino-1-((4-(tert-butyl)phenyl)amino)-4-phenylbutan-2-ol]	3.46 ± 0.12
Cc1cccc(C)c1NC[C@H](O)[C@@H](N)Cc1ccccc1 [LTC-1041, (2S,3S)-3-Amino-1-((2,6-dimethylphenyl)amino)-4-phenylbutan-2-ol]	20.3 ± 4.1

Test system: L. major axenic amastigotes
Assay: L. major axenic amastigote viability, resazurin reduction
Settings: Leishmania major, 72 h, read-out: Residual viability, L.major amastigote (25 µM)
Summary of the method: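 Axenic L. major LV561 amastigotes were grown in Grace medium with 20% FCS, pH 5.4, at 33°C and seeded at 0.5x10^5 cells/well with compounds for 72 h. Resazurin was then added for 6 h and fluorescence read at ex 550/em 590 nm; hits were retested at 2.5 μM.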

Compound	viability at 25 µM [%]
CC(C)(C)c1ccc(NC[C@H](O)[C@@H](N)Cc2ccccc2)cc1 [LTC-1034, (2S,3S)-3-Amino-1-((4-(tert-butyl)phenyl)amino)-4-phenylbutan-2-ol]	15.2

Same assay, conditions: Leishmania major, read-out: viability, L.major amastigote (25 µM)

Compound	viability at 25 µM [%]
CC(C)(C)c1ccc(NC[C@H](O)[C@@H](N)Cc2ccccc2)cc1 [LTC-1034, (2S,3S)-3-Amino-1-((4-(tert-butyl)phenyl)amino)-4-phenylbutan-2-ol]	15.2 ± 1.86
Cc1cccc(C)c1NC[C@H](O)[C@@H](N)Cc1ccccc1 [LTC-1041, (2S,3S)-3-Amino-1-((2,6-dimethylphenyl)amino)-4-phenylbutan-2-ol]	73.8 ± 2.47

Same assay, conditions: Leishmania major, read-out: viability, L.major amastigote(2.5 µM)

Compound	viability at 2.5 µM [%]
CC(C)(C)c1ccc(NC[C@H](O)[C@@H](N)Cc2ccccc2)cc1 [LTC-1034, (2S,3S)-3-Amino-1-((4-(tert-butyl)phenyl)amino)-4-phenylbutan-2-ol]	73.9 ± 0.76

Test system: not listed separately
Assay: Cytotoxicity assay J774, resazurin reduction
Type: cell-based, murine
Settings: mouse, J774 macrophage cells; 2.5 µM; read-out: viability, J774 (2.5 µM)
Summary of the method: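 J774 and HepG2 cells were seeded at 0.5x10^5 cell/well and exposed to serially diluted compounds for 72 h at 37°C, 5% CO2. Viability was read by fluorescence resazurin reduction (λEx 550 nm, λEm 590 nm).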

Compound	viability at 72 h, 2.5 µM [%]
CC(C)(C)c1ccc(NC[C@H](O)[C@@H](N)Cc2ccccc2)cc1 [LTC-1034, (2S,3S)-3-Amino-1-((4-(tert-butyl)phenyl)amino)-4-phenylbutan-2-ol]	96.6 ± 5.47
Cc1cccc(C)c1NC[C@H](O)[C@@H](N)Cc1ccccc1 [LTC-1041, (2S,3S)-3-Amino-1-((2,6-dimethylphenyl)amino)-4-phenylbutan-2-ol]	100 ± 2.23

Same assay, conditions: mouse, J774 macrophage cells; 25 µM; read-out: viability, J774 (25 µM)

Compound	viability at 72 h, 25 µM [%]
CC(C)(C)c1ccc(NC[C@H](O)[C@@H](N)Cc2ccccc2)cc1 [LTC-1034, (2S,3S)-3-Amino-1-((4-(tert-butyl)phenyl)amino)-4-phenylbutan-2-ol]	64.1 ± 4.5
Cc1cccc(C)c1NC[C@H](O)[C@@H](N)Cc1ccccc1 [LTC-1041, (2S,3S)-3-Amino-1-((2,6-dimethylphenyl)amino)-4-phenylbutan-2-ol]	85.1 ± 13.9

Test system: T. cruzi trypomastigotes
Assay: T. cruzi viability, resazurin reduction
Type: cell-based, Trypanosoma cruzi
Settings: Trypanosoma cruzi, 2.5 µM; read-out: viability, T.cruzi (2.5 µM)
Summary of the method: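 Y-strain trypomastigotes kept in supplemented liver infusion tryptose broth with 10% FCS, pH 7.2, at 28°C. Viability by fluorescence resazurin reduction; single-point screen at 2.5 μM, then 18-concentration dose response. Amphotericin B as control drug.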

Compound	viability at 2.5 µM [%]
CC(C)(C)c1ccc(NC[C@H](O)[C@@H](N)Cc2ccccc2)cc1 [LTC-1034, (2S,3S)-3-Amino-1-((4-(tert-butyl)phenyl)amino)-4-phenylbutan-2-ol]	60.1 ± 2.2
Cc1cccc(C)c1NC[C@H](O)[C@@H](N)Cc1ccccc1 [LTC-1041, (2S,3S)-3-Amino-1-((2,6-dimethylphenyl)amino)-4-phenylbutan-2-ol]	60 ± 3.23

Same assay, conditions: Trypanosoma cruzi, 25 µM; read-out: viability, T.cruzi (25 µM)

Compound	viability at 25 µM [%]
CC(C)(C)c1ccc(NC[C@H](O)[C@@H](N)Cc2ccccc2)cc1 [LTC-1034, (2S,3S)-3-Amino-1-((4-(tert-butyl)phenyl)amino)-4-phenylbutan-2-ol]	30.8 ± 2.5
Cc1cccc(C)c1NC[C@H](O)[C@@H](N)Cc1ccccc1 [LTC-1041, (2S,3S)-3-Amino-1-((2,6-dimethylphenyl)amino)-4-phenylbutan-2-ol]	57.2 ± 4.4

Source: article PMC10994559 (PLOS Neglected Tropical Diseases, 2024)
